Patent publication US11980616B2, “Treating liver disease by selectively eliminating senescent cells” (Buck Institute for Research on Aging, priority 2014, dated 2024)

What was measured:
[1] = tested on: non-senescent foreskin fibroblasts (Non Sen HCA2); experiment: Cell count toxicity assay, non-senescent HCA2; format: cell-based; conditions: 0, 2.5, 10 μM, 9 days
Description: (§1) Foreskin fibroblast cell lines HCA2 and BJ, lung fibroblast cell line IMR90, and mouse embryonic fibroblasts were seeded in six-well plates and induced to senesce with 10 Gy of ionizing radiation (IR) or a 24 hr treatment with doxorubicin (Doxo). Senescent phenotype was allowed to develop for at least 7 days, at which point a cell count was made to determine the baseline number of cells. Nutlin-3a treatment was then initiated for a period of at least 9 days. Media alone or media with drug as appropriate was refreshed at least every three days. At the end of the assay time period, cells are counted. Each condition was seeded in three plate wells and counted independently. Initial cell count serves as a control to determine the induction of senescence, as compared to the last day count without nutlin treatment. Initial non-senescent cell count serves as a proxy to determine Nutlin-3a toxicity.
(§2) Non-senescent foreskin fibroblasts (HCA2), lung fibroblasts (IMR90), and mouse embryonic fibroblasts (MEF) were treated with varying concentrations (0, 2.5 μM, and 10 μM) of Nutlin-3a for a period of 9 days to assess Nutlin-3a toxicity. Cell counts were taken at the start (NS start) and end of Nutlin-3a treatment. The difference between counts of cells not treated with Nutlin-3a on day 9 (NS 0) and cell counts determined at day zero (NS start) reflects the cell growth over the indicated time period. […]

[2] = tested on: non-senescent lung fibroblasts (Non Sen IMR90); experiment: Cell count toxicity assay, non-senescent IMR90; format: cell-based, human; conditions: 0, 2.5, 10 μM, 9 days
Description: as §1, §2

[3] = tested on: senescent mouse embryonic fibroblasts (MEF); experiment: Cell count survival assay, irradiation-induced senescent MEF; format: cell-based; conditions: irradiated MEF; 0, 2.5, 10 μM for 9 days
Description: as §1
Foreskin fibroblast cell lines HCA2 and BJ, lung fibroblast cell line IMR90, and mouse embryonic fibroblasts were exposed to 10 Gy of ionizing radiation (IR) to induce senescence. […] Percent survival was calculated as [cell count on day 9 of Nutlin-3a treatment/initial cell count on first day of Nutlin-3a treatment].

[4] = tested on: DNA damage response proteins in senescent IMR90 cells; experiment: Immunoblot of DNA damage response proteins in irradiated senescent IMR90 cells; format: cell-based, human
Description: Primary human fibroblast (IMR90) cells were induced to senesce by applying 10 Gy of irradiation. Seven days after irradiation (Day 0), cells were treated with 10 μM Nutlin-3a or vehicle (DMSO) for nine days (Day 9). The drug or vehicle was refreshed every three days. Drug/vehicle was removed at Day 9 and the cells were cultured for an additional six days in media without drug or DMSO, changing media every three days. Cells were collected at Day 0 (non-senescent cells), Day 9, Day 12, and Day 15, and protein extracted and processed for immunoblotting (Western blotting). Two samples were processed at each time point; the results are provided for one sample in FIG. 14.

[5] = tested on: non-senescent aortic endothelial (Non Sen Endo Aort) cells; experiment: Cell count toxicity assay, non-senescent aortic endothelial cells; format: cell-based; conditions: 0, 2.5, 10 μM, 11 days
Description: Non-senescent aortic endothelial (Endo Aort) cells and pre-adipocytes (Pread) were also treated with varying concentrations (0, 2.5 μM, and 10 μM) of Nutlin-3a for a period of 11 days to assess Nutlin-3a toxicity, as described above. Cell counts were taken at the start at Day 0 (NS start) and at the end of Nutlin-3a treatment (NS 0). The difference between counts of cells not treated with Nutlin-3a on day 11 (NS 0) and cell counts from NS start reflects the cell growth over the indicated time period. […] Decrease in apparent survival between NS 0 and NS 2.5 and between NS 0 and NS 10 reflects a decrease in cell growth.

[6] = tested on: p16-3MR mice fed a high fat diet; experiment: High fat feeding-induced senescence in p16-3MR mice, SA-β-Gal staining of adipose tissue; format: in vivo, mouse; conditions: 25 mg/kg daily for five days; p=<0.004
Description: Groups of p16-3MR mice (n=6) were fed a high fat diet (60% fat) for four months mice or a regular chow diet. The presence of senescence cells was determined by measuring luminescence p16 positive cells). […] Animals were then treated with ganciclovir or vehicle to determine if removal of senescent cells reduced the presence of senescent cells in adipose tissue. Groups of animals were treated with ganciclovir or vehicle. Ganciclovir (25 mg/kg) was administered daily for five consecutive days. The presence of senescent cells in perirenal, epididymal, or subcutaneous inguinal adipose tissue was detected by SA-β-Gal staining. Data were analyzed by ANOVA.

[7] = 10 μM, decreased when the drug was removed

SMILES | Proliferation (percent growth) [1] | Toxicity (cell number vs starting level) [1] | Proliferation (percent growth) [2] | Toxicity (cell number vs starting level) [2] | Percent survival [3] | Phosphorylation of H2AX (γH2AX) ([4]; 10 μM, after treatment and after drug removal) | Phosphorylation of the kinase ATM (pATM S1981) ([4]; 10 μM, also after drug removal) | Level of MDM2 [4, 7] | Level of p21 [4, 7] | Level of p53 [4, 7] | Level of IkBa ([4]; after drug is removed) | Proliferation (percent growth) [5] | Toxicity (cell number vs starting level) [5] | Presence of senescent cells in epididymal fat (SA-β-Gal staining) [6]
COc1ccc(C2=N[C@@H](c3ccc(Cl)cc3)[C@@H](c3ccc(Cl)cc3)N2C(=O)N2CCNC(=O)C2)c(OC(C)C)c1 [Nutlin-3a] | reduces proliferation | non-toxic | reduces proliferation | non-toxic | reduced cell survival | declining levels of phosphorylation | lower | elevated | elevated | elevated | approaches the level of IkBa in non-senescent cells | reduces proliferation | non-toxic | –
Nc1nc(O)c2ncn(COC(CO)CO)c2n1 [ganciclovir] | – | – | – | – | – | – | – | – | – | – | – | – | – | significant reduction
